Assays:
[1] = test system: chorionic allantoic membrane (CAM); experiment: CAM assay of deoxy sugar-loaded biomaterials (in ovo, implanted day 8, scored day 14); type: in vivo, chicken (Gallus domesticus)
Method: Fertilized chicken (Gallus domesticus) eggs were purchased from Big Bird (Raiwind road, Lahore, Pakistan) and incubated at 37° C. from day 2 of fertilization until day 8 in a humidified egg incubator (HHD, 435, China). At day 8, a square window (1 cm^2) was cut into the shell and removed, and a 2 cm^2 piece of the electrospun scaffold or hydrogels (16% PCL electrospun scaffold/CS/PVA hydrogel/CS/collagen hydrogels) placed onto the CAM. Each egg was implanted with one scaffold or hydrogel only.
The shell window was closed with parafilm (Bemis Flexible Packaging, USA) and sealed with adhesive tape. After implantation, eggs were placed again at 37° C. in a 40% humidified incubator until day 14. At day 14, biomaterials were retrieved and the eggs were sacrificed. Angiogenesis was quantified by taking light microscope pictures just before scaffold retrieval and then blindly scored by four assessors using histological images of the retrieved materials. The number of implanted and survived eggs is given in the caption of respective CAM assay figures.
D and L isomers of three-deoxysugars (ribose, fucose and rhamnose) were loaded onto the porous freeze gelated triethyl orthoformate (4%) covalently cross-linked chitosan/collagen (1:1) hydrogels. The hydrogels were soaked in an aqueous solution of sugars (1 mg/ml) and were further lyophilized (freeze dried) to produce porous membranes. As for the electrospun scaffold, the hydrogels were grafted into the fertilized eggs at day 8 and after day 14 the eggs were sacrificed and the effect of sugars on angiogenesis was investigated.

CAM = experiment: Ex-ovo CAM assay, direct application of substances; type: in vivo, chicken (Gallus domesticus)
Method: All CAM experiments were carried out according to the Home Office, UK guidelines. Fertilised chicken eggs (Gallus domesticus) were purchased from Henry Stewart & Co. (MedEggs, Norwich, UK). The eggs were carefully wiped with 20% industrial methylated spirit (IMS) solution using hand paper towels in order to remove dirt and feathers from the shell. The eggs were then incubated at 37.5° C. until embryonic development day (EDD) 3, lying horizontally in an humidified egg incubator (RCOM King SURO, P&T Poultry, Powys, Wales).
On EDD3, the upper surface of the eggs were marked with a felt pen. The eggs were held horizontally (with the marked surface on top) and cracked on the edge of a 1000 ml glass beaker and kept close to the bottom surface of petri dishes. The embryos were then transferred gently into sterile petri dishes and kept in a humidified incubator (Binder, Tuttlingen, Germany) at 38° C.
Plastic rings (˜6.5 mm in diameter) were used as a reservoir for substances and a marker for the implantation area, were placed on the CAM, and the substances were applied as 20 μl volume onto the CAM twice a day to give a […] between EDD7 and EDD11. Images of the rings were acquired using a digital microscope at EDD11, and then 20% lens culinaris agglutinin (LCA) (Vector Laboratories, Peterborough, UK) was injected into the circulation for labelling the intravascular endothelial cells using 30G needles under a dissection microscope (Wild Heerbrugg, Heerbrugg, Switzerland). CAMs were then removed and fixed in 3.7% formaldehyde solution. Embryos were sacrificed at the end of EDD11. Fixed CAM samples were then imaged under a confocal microscope (Zeiss LSM 510 Meta, Jena, Germany) for investigating the effect of substances on the microvascular structure of the CAMs.
Blood vessels were quantified by segmentation of the images [C. Roma-Rodrigues, A. Heuer-Jungemann, A. R. Fernandes, A. G. Kanaras, P. V. Baptista, Peptide-coated gold nanoparticles for modulation of angiogenesis in vivo, IntJ Nanomedicine. 11 (2016) 2633-2639. doi: 10.2147/IJN.S108661] so as to include all discernible vessels and then counting the branch points and calculating average vessel lengths [D. Ribatti, B. Nico, A. Vacca, M. Presta, The gelatin sponge-chorioallantoic membrane assay, Nat Protoc. 1 (2006) 85-91. doi: 10.1038/nprot.2006.13, P. Brooks, A. P. Montgomery, D. Cheresh, Use of the 10-Day-Old Chick Embryo Model for Studying Angiogenesis, Integrin Protoc. 129 (1999) 257-269. doi: 10.1385/1-59259-249-X: 257] via multiple image processing steps. Firstly, the internal area of the ring was cropped, and the red, green and blue channels were split using Adobe Photoshop CS6 (ADOBE Systems Inc., San Jose, California, USA). The green channel was then imported to ImageJ (Wayne Rasband, National Institutes of Health, USA) for further analysis including unsharp mask filtering, enhancing the local contrast, noise removal and segmentation. Finally, the number of branch points was quantified using quantification software (AngioTool, National Cancer Institute, USA) (FIG. 14A) and average blood vessel lengths were calculated by using binary image histograms with known pixel/mm ratios in ImageJ (Wayne Rasband, National Institutes of Health, USA).
The percentage vascular area (VA %) of the microvasculature of CAMs were quantified using confocal images of rhodamine labelled lectin injected CAM samples as shown in FIG. 14B. To do this, images were imported to ImageJ (Wayne Rasband, National Institutes of Health, USA) and converted to binary images after filtering and smoothing processes prior to quantification. VA % was calculated using the histogram list of black and white areas in the image.
All chemicals were purchased from Sigma Aldrich unless indicated otherwise. […]

[2] = E2 and 2dDR release from PHBV scaffolds in PBS; type: physicochemical; details: by 7 days
Method: 10% (w/w) PHBV solution loaded was prepared prior to electrospinning. 1 g of PHBV granules (Goodfellow, London, UK) were dissolved in 1 g of methanol (Fisher Scientific, Massachusetts, USA) and 8 g of DCM (Fisher Scientific, Massachusetts, USA) in a fume hood. Four 10% PHBV solutions were prepared prior to addition of substances. Finally, 25 mg E2, 50 mg of E2, 250 mg of 2dDR and 500 mg of 2dDR were then added to each solution per 1 g of PHBV. The mixtures were magnetically stirred overnight.
Scaffolds were cut into pieces so to fit into an 6-well plate, weighed and submerged in 4 ml of PBS. The E2 and 2dDR concentrations released from each group (25 mg E2, 50 mg E2, 250 mg 2dDR, 500 mg 2dDR) were measured […] using a UV-VIS spectrophotometer (Thermo Fischer Evolution 220, Massachusetts, USA) at 238 nm for 2dDR and 220 nm for E2. Absorbance values were converted into concentrations using a standard curve of known concentrations of E2 and 2dDR.

- release from the scaffolds, of the amount present in the polymer solution ([2]; 250 mg 2dDR per 1 g PHBV scaffold): 81.3%
- release from the scaffolds, of the amount present in the polymer solution ([2]; 500 mg 2dDR per 1 g PHBV scaffold): 86.5%
Structure (SMILES): O=CC[C@H](O)[C@H](O)CO [2-deoxy-D-ribose]
- angiogenic response ([1]; loaded (1 mg/ml) in cross-linked chitosan/collagen hydrogels): strongly angiogenic
- angiogenesis compared to the control material ([1]; loaded in chitosan/PVA triethyl orthoformate cross-linked hydrogels): promoted angiogenesis
- angiogenic potential (new blood vessels) ([1]; loaded in electrospun PCL fibers): growth of extensive new blood vessels under the material
- increase of number of branch points (CAM; 2dDR 20 μg/day): 1.3 times
- increase of number of branch points (CAM; 2dDR 200 μg/day): 1.4 times
- percentage vascular area (VA %) of microvasculature (CAM; 2dDR 200 μg/day, over 4 days, control 55.3%±3%): 71.7%±3%
- angiogenic response (average vessel length) compared to control (CAM; 2dDR 1000 μg/day): no significant difference
- increase of average vessel length (CAM; both 2dDR 20 μg/day and 200 μg/day): 1.2 times

— US20250099486A1, “WOUND HEALING MEDICAMENT” (The University of Sheffield, priority 2017, published 2025)
